Experimental data published in paper PMC12332667, “Role of Structural Modifications in Peptidomimetic Compounds as Potential Antimicrobial Agents against Staphylococcus aureus and Streptococcus pyogenes: Balancing Bioavailability, Safety, and Antimicrobial Activity” (ACS Omega, 2025).
In brackets after ≈: the same amount, converted by molar mass.

Key:
S. aureus ATCC 43300 = experiment: MIC/MBC broth microdilution, S. aureus; format: cell-based, Staphylococcus aureus; details: S. aureus
S. pyogenes ATCC 19615 = experiment: MIC/MBC broth microdilution, S. pyogenes; format: cell-based, Streptococcus pyogenes; details: S. pyogenes
Protocol: (§1) S. aureus (ATCC 29213),S. pyogenes (ATCC 19615),Streptococcus agalactiae (ATCC 27956),Escherichia coli (ATCC 25922),Proteus vulgaris (ATCC 6896),K. pneumoniae (ATCC 700603) andP. aeruginosa (ATCC 10145) reference strains, as well asStaphylococcus cohnii, Enterococcus faecalis, Staphylococcus schleiferi, Staphylococcus intermedius and Streptococcus mutans clinical isolates, were used to test the antibacterial activity of the peptidomimetics. Bacteria were aerobically cultured for 18 h at 37 °C in plates with sterilized brain heart infusion (BHI) broth (Sigma-Aldrich, USA) media mixed with bacteriological agar (Sigma-Aldrich, USA) using the streak plate method. After 18 h, BHI broth was inoculated to 0.5 on the McFarland scale and diluted to approximately 10^5 CFU/mL. To achieve a final stock concentration of 1024 μg/mL, the peptidomimetics were dissolved in sterile water, and 5–10% of absolute ethanol or dimethyl sulfoxide (DMSO) was added. The antibacterial activities were determined by using the standard broth microdilution method of the National Committee for Clinical Laboratory Standards. The process involved adding serially diluted peptidomimetics to consecutive wells of a 96-well microtiter plate (Brand, Germany) holding media with microorganisms. The inoculated plates treated with peptides were then placed in an incubator at 37 °C for 18 h. The MIC value was determined as the lowest concentration of peptidomimetic at which there was no obvious growth (equal or more than 90% of the untreated sample). […] The lowest concentration yielding growth in no more than 3 colonies, corresponding to at least a 99.9% kill rate, was taken as MBC. Each biological replicate included control wells with the addition of water, DMSO, and ethanol as respective solvent controls. All experiments were conducted with consistent adherence to growth and sterility controls and were performed at least in technical triplicate with three biological repeats.

S. cohnii c.i. = experiment: MIC/MBC broth microdilution, S. cohnii; format: cell-based, Staphylococcus cohnii
Protocol: as §1

E. faecalis c.i. = experiment: MIC/MBC broth microdilution, E. faecalis; format: cell-based, Enterococcus faecalis
Protocol: as §1

S. schleiferi c.i. = experiment: MIC/MBC broth microdilution, S. schleiferi; format: cell-based, Staphylococcus schleiferi
Protocol: as §1

S. agalactiae ATCC 27956 = experiment: MIC/MBC broth microdilution, S. agalactiae; format: cell-based, Streptococcus agalactiae; details: S. agalactiae
Protocol: as §1

S. intemrdius c.i. = experiment: MIC/MBC broth microdilution, S. intermedius; format: cell-based, Staphylococcus intermedius
Protocol: as §1

S. mutans c.i. = experiment: MIC/MBC broth microdilution, S. mutans; format: cell-based, Streptococcus mutans
Protocol: as §1

E. coli ATCC 25922 = experiment: MIC/MBC broth microdilution, E. coli; format: cell-based, Escherichia coli
Protocol: as §1

P. vulgaris ATCC 6896 = experiment: MIC/MBC broth microdilution, P. vulgaris; format: cell-based, Proteus vulgaris
Protocol: as §1

[1] = tested on: K. pneumoniae ATCC 700603; experiment: MIC/MBC broth microdilution, K. pneumoniae; format: cell-based
Protocol: as §1

P. aeruginosa ATCC 10145 = experiment: MIC/MBC broth microdilution, P. aeruginosa; format: cell-based
Protocol: as §1

[2] = tested on: immortalized human keratinocytes (HaCaT); experiment: LDH cytotoxicity test, keratinocytes; format: cell-based; details: 48 h
Protocol: (§2) In our study, we used two distinct cell types: immortalized human HaCaT keratinocytes (DKFZ, Heidelberg, Germany) and a human dermal fibroblast cell line (46BR.1N). […] Cultures were maintained in a humidified atmosphere with 5% CO2 at 37 °C in 25 cm^2 culture flasks with the medium replenished every 2 days. The condition of the cells was monitored using optical microscopy.
(§3) Cell death in immortalized human keratinocytes (HaCaT) and fibroblasts (46BR.1N) was measured by quantifying the lactate dehydrogenase (LDH) activity using a commercial kit (Roche, Switzerland). Cells were seeded in 96-well plates at a density of 5000 cells per well in DMEM high glucose medium supplemented with 10% FBS. After 24 h of incubation, the medium was replaced with serum-free medium containing various concentrations of peptidomimetics (50, 100, and 150 μg/mL). After 48 h, supernatants were collected for LDH analysis. Plate readings were taken spectrophotometrically using a 450 nm wavelength. Cell death measurements were normalized to an untreated control (0%), with 1% Triton X-100 detergent used as a positive control to induce maximum LDH release, indicating maximal cytotoxicity. Statistical significance was determined with a Mann–Whitney U test with a statistical significance p ≤ 0.05. Analysis was performed with Statistica software (Krakow, Poland) and graphs were prepared in GraphPad Prism (Boston, USA).

fibroblasts (46BR.1N) = experiment: LDH cytotoxicity test, fibroblasts; format: cell-based; details: 48 h
Protocol: as §2, §3

[3] = tested on: immortalized human HaCaT keratinocytes; experiment: XTT cell proliferation assay, keratinocytes; format: cell-based
Protocol: (§4) In our study, we used two distinct cell types: immortalized human HaCaT keratinocytes (DKFZ, Heidelberg, Germany) and a human dermal fibroblast cell line (46BR.1N). […] Cultures were maintained in a humidified atmosphere with 5% CO2 at 37 °C in 25 cm^2 culture flasks with the medium replenished every 2 days. The condition of the cells was monitored using optical microscopy. […] After 24 h of incubation, the medium was replaced with serum-free HG-DMEM containing appropriate concentrations of peptidomimetics. All solutions used in the experiments were prepared with double-distilled water or with the addition of ethanol under sterile conditions to ensure compatibility with the conditions of the bacteriological assay. For 72 h of incubation, half of the medium was replaced with fresh medium after 48 h, and cells were stimulated with peptides for a second time. The XTT cell proliferation assay was then performed according to the manufacturer’s instructions (Roche, Switzerland). Cells were treated with the peptides for either 48 or 72 h, followed by the addition of XTT reagent, and the plates were then incubated at 37 °C in a 5% CO2 environment for 4 h. Plate readings were taken using a standard plate reader at a wavelength of 490 nm (OD = 490 nm). […] Statistical significance was determined with a Mann–Whitney U test with statistical significance p ≤ 0.05. Analysis was performed with Statistica software, and graphs were prepared in GraphPad Prism.

[4] = tested on: human dermal fibroblast cell line (46BR.1N); experiment: XTT cell proliferation assay, fibroblasts; format: cell-based; details: XTT
Protocol: as §4

Cc1ccccc1COC(=O)N[C@@H](CCCNC(=N)N)C(=O)N[C@@H](CC(C)C)C(=O)N[C@H](CNC(=O)/C=C/c1ccccc1)C(C)C [Compound A-210]
MIC (S. aureus ATCC 43300; H2O): 32 µg/mL (≈ 49.2 µM) | MIC (S. aureus ATCC 43300; water additive DMSO): 32 µg/mL (≈ 49.2 µM) | MBC (S. aureus ATCC 43300; water additive EtOH): 32 µg/mL (≈ 49.2 µM) | MIC (S. aureus ATCC 43300; water additive EtOH): 16 µg/mL (≈ 24.6 µM) | MIC (S. pyogenes ATCC 19615; H2O): 32 µg/mL (≈ 49.2 µM) | MIC (S. pyogenes ATCC 19615; water additive DMSO): 32 µg/mL (≈ 49.2 µM) | MIC (S. pyogenes ATCC 19615; water additive EtOH): 32 µg/mL (≈ 49.2 µM) | MIC (S. cohnii c.i.; water additive DMSO): 32 µg/mL (≈ 49.2 µM) | MIC (S. cohnii c.i.; water additive EtOH): 32 µg/mL (≈ 49.2 µM) | MBC (E. faecalis c.i.; H2O): 256 µg/mL (≈ 394 µM) | MBC (E. faecalis c.i.; water additive DMSO): 256 µg/mL (≈ 394 µM) | MBC (E. faecalis c.i.; water additive EtOH): 256 µg/mL (≈ 394 µM) | MIC (E. faecalis c.i.; water additive EtOH): 32 µg/mL (≈ 49.2 µM) | MBC (S. schleiferi c.i.; H2O): 8 µg/mL (≈ 12.3 µM) | MIC (S. schleiferi c.i.; H2O): 4 µg/mL (≈ 6.16 µM) | MBC (S. schleiferi c.i.; water additive DMSO): 16 µg/mL (≈ 24.6 µM) | MIC (S. schleiferi c.i.; water additive DMSO): 8 µg/mL (≈ 12.3 µM) | MBC (S. schleiferi c.i.; water additive EtOH): 8 µg/mL (≈ 12.3 µM) | MIC (S. schleiferi c.i.; water additive EtOH): 4 µg/mL (≈ 6.16 µM) | MIC (S. agalactiae ATCC 27956; H2O): 16 µg/mL (≈ 24.6 µM) | MBC (S. agalactiae ATCC 27956; water additive DMSO): 32 µg/mL (≈ 49.2 µM) | MIC (S. agalactiae ATCC 27956; water additive DMSO): 16 µg/mL (≈ 24.6 µM) | MIC (S. agalactiae ATCC 27956; water additive EtOH): 32 µg/mL (≈ 49.2 µM) | MBC (S. intemrdius c.i.; H2O): 16 µg/mL (≈ 24.6 µM) | MIC (S. intemrdius c.i.; H2O): 16 µg/mL (≈ 24.6 µM) | MBC (S. intemrdius c.i.; water additive DMSO): 16 µg/mL (≈ 24.6 µM) | MIC (S. intemrdius c.i.; water additive DMSO): 16 µg/mL (≈ 24.6 µM) | MBC (S. intemrdius c.i.; water additive EtOH): 16 µg/mL (≈ 24.6 µM) | MIC (S. intemrdius c.i.; water additive EtOH): 16 µg/mL (≈ 24.6 µM) | MIC (S. mutans c.i.; H2O): > 512 µg/mL | MIC (S. mutans c.i.; water additive DMSO): > 512 µg/mL | MIC (S. mutans c.i.; water additive EtOH): > 512 µg/mL | MIC (E. coli ATCC 25922; H2O): > 512 µg/mL | MIC (E. coli ATCC 25922; water additive DMSO): > 512 µg/mL | MIC (E. coli ATCC 25922; water additive EtOH): > 512 µg/mL | MBC (P. vulgaris ATCC 6896; H2O): 256 µg/mL (≈ 394 µM) | MBC (P. vulgaris ATCC 6896; water additive DMSO): 256 µg/mL (≈ 394 µM) | MIC ([1]; H2O): > 512 µg/mL | MIC ([1]; water additive DMSO): > 512 µg/mL | MIC ([1]; water additive EtOH): > 512 µg/mL | MIC (P. aeruginosa ATCC 10145; H2O): 512 µg/mL (≈ 788 µM) | MIC (P. aeruginosa ATCC 10145; water additive DMSO): 512 µg/mL (≈ 788 µM) | MBC (P. aeruginosa ATCC 10145; water additive EtOH): 512 µg/mL (≈ 788 µM) | MIC (P. aeruginosa ATCC 10145; water additive EtOH): 256 µg/mL (≈ 394 µM) | cytotoxicity (LDH), in words ([2]; 50-150 μg/mL): no negative effect at 50 μg/mL concentration | concentration at which cytotoxic effect starts ([2]; LDH): 100 µg/mL | cytotoxicity (LDH), in words (fibroblasts (46BR.1N); 50-150 μg/mL): no negative effect at 50 μg/mL concentration | concentration at which cytotoxic effect starts (fibroblasts (46BR.1N); LDH): 100 µg/mL | proliferation ([3]; 72 h): less than 50% | proliferation relative to control at 150 μg/mL (highest tested concentration) ([3]; XTT, 150 μg/mL): 50% | effect on proliferation, in words ([3]; XTT, 48 and 72 h, 0.01–150 μg/mL): negative impact | proliferation relative to control at 150 μg/mL (highest tested concentration) ([4]; 150 μg/mL): 50% | effect on proliferation, in words ([4]; 48 and 72 h, 0.01–150 μg/mL): negative impact
